Test results reported in paper PMC8269135, “Diethylstilbestrol, a Novel ANO1 Inhibitor, Exerts an Anticancer Effect on Non-Small Cell Lung Cancer via Inhibition of ANO1” (International Journal of Molecular Sciences, 2021).

Tests used:
[1] = target: T1, Anoctamin1 (ANO1) (Homo sapiens, UniProt Q5XXA6); experiment: YFP quenching assay in FRT-ANO1 cells; short-circuit current; whole-cell patch clamp in HEK293; type: cell-based
T1 construct: human ANO1 expressed in FRT cells (YFP assay, Ussing chamber) and HEK293 cells (patch clamp)
T1 sequence (Q5XXA6 1-986): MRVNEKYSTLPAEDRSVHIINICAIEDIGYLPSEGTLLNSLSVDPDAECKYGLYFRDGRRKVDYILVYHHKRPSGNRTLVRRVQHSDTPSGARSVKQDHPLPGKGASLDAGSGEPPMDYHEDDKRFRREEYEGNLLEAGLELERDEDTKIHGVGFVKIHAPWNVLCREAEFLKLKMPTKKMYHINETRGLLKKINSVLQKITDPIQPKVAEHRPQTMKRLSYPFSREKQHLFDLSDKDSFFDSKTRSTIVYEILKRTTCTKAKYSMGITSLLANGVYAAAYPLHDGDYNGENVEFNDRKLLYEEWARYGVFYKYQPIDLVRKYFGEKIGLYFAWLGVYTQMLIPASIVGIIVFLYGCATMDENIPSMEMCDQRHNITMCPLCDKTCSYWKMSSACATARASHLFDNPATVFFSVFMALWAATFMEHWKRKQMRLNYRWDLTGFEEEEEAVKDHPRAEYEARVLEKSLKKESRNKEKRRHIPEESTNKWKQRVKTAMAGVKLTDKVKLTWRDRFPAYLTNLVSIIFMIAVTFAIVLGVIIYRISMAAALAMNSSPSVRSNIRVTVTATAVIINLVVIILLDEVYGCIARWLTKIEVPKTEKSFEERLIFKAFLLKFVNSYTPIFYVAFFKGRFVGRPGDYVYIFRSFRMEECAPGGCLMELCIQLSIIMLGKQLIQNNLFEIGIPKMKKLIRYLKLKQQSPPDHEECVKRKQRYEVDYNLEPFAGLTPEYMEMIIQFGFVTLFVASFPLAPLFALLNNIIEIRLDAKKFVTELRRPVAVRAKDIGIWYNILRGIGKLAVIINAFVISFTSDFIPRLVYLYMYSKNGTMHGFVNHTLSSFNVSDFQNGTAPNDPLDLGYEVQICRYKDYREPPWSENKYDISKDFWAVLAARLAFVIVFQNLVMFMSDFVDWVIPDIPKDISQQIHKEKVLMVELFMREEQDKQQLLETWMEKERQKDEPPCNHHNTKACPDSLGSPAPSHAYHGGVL

[2] = target: T2, cystic fibrosis transmembrane conductance regulator (CFTR) (Homo sapiens, UniProt P13569); experiment: YFP fluorescence and Ussing chamber short-circuit current in FRT-hCFTR cells, […]; type: cell-based
T2 construct: human CFTR expressed in FRT cells
T2 sequence (P13569 whole entry): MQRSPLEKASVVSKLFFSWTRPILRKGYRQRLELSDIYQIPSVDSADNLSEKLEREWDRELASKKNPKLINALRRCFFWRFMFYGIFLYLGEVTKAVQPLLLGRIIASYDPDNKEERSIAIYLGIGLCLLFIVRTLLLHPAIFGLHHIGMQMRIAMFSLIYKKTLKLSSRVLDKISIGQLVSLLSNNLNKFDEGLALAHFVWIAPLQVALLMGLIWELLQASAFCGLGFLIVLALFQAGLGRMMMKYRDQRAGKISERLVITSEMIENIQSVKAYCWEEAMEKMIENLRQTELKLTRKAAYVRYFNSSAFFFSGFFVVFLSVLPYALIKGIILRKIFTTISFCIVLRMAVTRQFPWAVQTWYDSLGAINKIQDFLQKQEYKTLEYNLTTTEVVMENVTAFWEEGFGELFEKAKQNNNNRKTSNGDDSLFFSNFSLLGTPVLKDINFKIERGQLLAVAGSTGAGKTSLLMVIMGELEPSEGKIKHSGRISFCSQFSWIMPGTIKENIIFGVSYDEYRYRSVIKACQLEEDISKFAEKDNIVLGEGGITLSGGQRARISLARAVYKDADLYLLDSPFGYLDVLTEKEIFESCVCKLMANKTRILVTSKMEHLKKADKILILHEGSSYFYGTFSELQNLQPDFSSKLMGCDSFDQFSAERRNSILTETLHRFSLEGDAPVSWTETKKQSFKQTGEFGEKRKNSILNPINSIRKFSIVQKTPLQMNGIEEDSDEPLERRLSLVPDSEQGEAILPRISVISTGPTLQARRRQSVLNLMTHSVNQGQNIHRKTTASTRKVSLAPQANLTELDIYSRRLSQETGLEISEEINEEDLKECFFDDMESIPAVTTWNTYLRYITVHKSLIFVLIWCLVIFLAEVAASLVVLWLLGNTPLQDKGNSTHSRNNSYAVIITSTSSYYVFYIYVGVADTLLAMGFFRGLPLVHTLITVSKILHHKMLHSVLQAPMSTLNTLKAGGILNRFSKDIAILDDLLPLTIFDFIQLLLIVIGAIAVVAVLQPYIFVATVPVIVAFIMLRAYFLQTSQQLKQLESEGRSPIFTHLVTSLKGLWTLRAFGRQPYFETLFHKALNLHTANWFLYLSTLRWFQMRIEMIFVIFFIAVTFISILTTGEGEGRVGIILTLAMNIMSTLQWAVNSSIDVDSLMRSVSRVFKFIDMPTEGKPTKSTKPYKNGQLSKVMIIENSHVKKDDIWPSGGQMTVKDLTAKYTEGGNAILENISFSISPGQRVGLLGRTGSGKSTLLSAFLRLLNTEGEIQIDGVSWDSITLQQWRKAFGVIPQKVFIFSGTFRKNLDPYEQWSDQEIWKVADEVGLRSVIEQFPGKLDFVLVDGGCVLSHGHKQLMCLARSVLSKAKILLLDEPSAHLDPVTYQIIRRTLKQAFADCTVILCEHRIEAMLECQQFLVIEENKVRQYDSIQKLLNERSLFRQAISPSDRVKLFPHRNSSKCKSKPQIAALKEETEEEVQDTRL

Structure (SMILES) | IC50 [1] | YFP fluorescence and Ussing chamber short-circuit current in FRT-hCFTR cells, 10 [2]
CC/C(=C(/CC)c1ccc(O)cc1)c1ccc(O)cc1 [DES, diethylstilbestrol] | 6.58 µM | –
O=C(O)c1ccc(/C=C2\SC(=S)N(c3cccc(C(F)(F)F)c3)C2=O)cc1 [CFTRinh-172] | – | forskolin-induced CFTR activity was inhibited by CFTRinh172 (a known CFTR channel inhibitor)
